Results on 63 molecules are retold here after a melting point compilation (Tetko et al.; mined from patent text by program, amines drawn as free bases though some values may be those of a salt).

In turn, `O=C(NC1CC1)C(Cl)Cl` registered a melting point of 130 to 132 °C.

As to `COc1cc(COc2nn(-c3ccccc3)cc2C=O)ccc1OCc1nc(-c2cccc(OS(C)(=O)=O)c2)oc1C`, the melting point lay in the range of 146 to 148 °C. Molecule `O=C(NCCCc1ccncc1)N1CCOCC1` displayed a melting point of 94 to 98 °C. `CCN(CC)CCNC(=O)c1cc(Cl)c(N)cc1OCC(=O)N1CCCC1` gave a melting point of 160 to 162 °C. `CCN(CC)CCOC(=O)c1cnc2ccn(-c3cccc(Cl)c3)n2c1=O` displayed a melting point of 153 to 154 °C. The molecule `Oc1ccc(OCCCCCCBr)cc1` came in with a melting point of 43 to 45 °C.

The molecule `c1ccc2c(Cn3ccnc3)noc2c1` came in with a melting point of 52 to 55 °C.

`COC(=O)[C@H](CC(=O)c1ccc2oc3ccccc3c2c1)NC(=O)c1ccccc1` displayed a melting point of 65 to 70 °C. `Cc1ccc(S(=O)(=O)OCCC(=C(c2ccccc2)c2ccccc2)c2ccccc2)cc1`: the melting point is 137 to 139 °C.

Molecule `COC12CC(C)(C)C(O1)C(OC(=O)c1ccc(N)cc1)C=C2C` (stereo not drawn) yielded a melting point of 118 to 119 °C. In turn, `Cc1nc2c(C(F)(F)F)cccc2c(O)c1C(=O)Nc1nccs1` yielded a melting point of 267 °C. In the case of `O=C(Nc1ccc(C2(O)CCN(C(=O)OCc3ccccc3)CC2)cc1)OCc1ccccc1` it was 156 to 158 °C; in that of `O=C1C2=C(SCCO2)C(O)N1c1ccc2ccc(Cl)cc2n1` (stereo not drawn), 270 °C; in that of `CC(C)n1nc(-c2sc(N)nc2-c2ccc(F)cc2)ccc1=O`, 256 to 257 °C.

With `CCCCC(=O)c1c(-c2ccc3cc(O)ccc3c2)oc2ccc(Cl)cc12`, the melting point lay in the range of 156 to 157 °C. In the case of `Cc1cc(OCc2ccc(-c3ccccc3-c3nnn(C(c4ccccc4)(c4ccccc4)c4ccccc4)n3)cc2)c(C(=O)c2ccccc2)c(C)n1` it was 84 to 91 °C; in that of `CCCCCCCCCCCCCCCCCCOCCOCCO`, 45 to 46 °C; in that of `Cc1ccn(-c2ccc(C=O)cc2)n1`, 96 to 98 °C. Turning to `CCc1cccc(Nc2nc(OCC3CCCCC3)c3[nH]cnc3n2)c1`, the melting point lay in the range of 180 to 183 °C. `Cc1ccc(-n2c(-c3ccc(Br)cc3)ccc2-c2ccc(Br)cc2)cc1`: the melting point lay within 262 to 264 °C. As for `CC(C)(C)OC(=O)ON=C(C#N)c1cccc2ccccc12`, the figure is 90 to 92 °C; as for `Cc1cc(CO)nc2cc3c(cc12)OC(C)(C)[C@H](O)[C@H]3NCCc1ccc(F)cc1` (relative stereo), 147 to 152 °C; as for `CNc1nccc(-c2cc(NCCCNCCCOC)c3cc(OC)ccc3c2)n1`, 130 to 132 °C. Take `Cn1cncc1C(N)(c1ccc(Cl)cc1)c1ccc2c(c1)c(CCc1cccc(Cl)c1)cc(=O)n2C` (stereo not drawn): the melting point amounted to 165 °C. `CC(Cc1cccc([N+](=O)[O-])c1)NC=O` (stereo not drawn): the melting point lay within 99 to 100 °C. With `Cc1nc(-c2ccc(C(F)(F)F)cc2)sc1C(=O)Nc1cc(Cl)ccc1-c1nnn[nH]1`, the melting point was in the range of 325 to 337 °C. As for `CN(C(=O)CCc1ccccc1)c1ccc(C(=O)NN=C2C(=O)Nc3ccc(I)cc32)cc1`, the melting point stood at 239 °C.

For `CC1(C)CC(=O)c2cc[nH]c2C1`, the melting point was 177 to 178 °C. Molecule `COc1cc2ncnc(N3CCC(CI)CC3)c2cc1OC` came in with a melting point of 180 to 182 °C.

`Nc1ncnc2[nH]c(=S)sc12` displayed a melting point of more than 370 °C. Molecule `CCCS(=O)(=O)c1sc(C(N)=O)c2c1-c1c(cnn1C)CC2` showed a melting point of 142 to 143 °C. As to `CCCOc1cc(-n2c(=O)cc(C(F)(F)F)n(C)c2=O)c(F)cc1Br`, the melting point is 119 °C. On to `Cc1ccc(Nc2nc(C)cs2)nc1`, for which the melting point was in the range of 212 to 214 °C. The molecule `CC(C)Cc1cc2nnc(-c3ccccc3F)n2nc1OCc1ncnn1C` registered a melting point of 134 to 136 °C.

As for `O=C1NCCNC1Cc1ccccc1` (stereo not drawn), the melting point is 92 to 93 °C. In turn, `OCc1cc(N2CCOCC2)c(F)cn1` yielded a melting point of 134 to 136 °C.

`O=C(O)CCc1cc2cc(Cl)c(Cl)cc2n1S(=O)(=O)c1ccccc1` registered a melting point of 192 to 198 °C.

For the molecule `CCn1c(=O)c2[nH]c(/C=C/c3ccc(OC)c(Br)c3)nc2n(CC)c1=O`, the melting point was more than 280 °C.

`CCOC(=O)C1=CC2(CCC1S(=O)(=O)Nc1ccc(F)cc1Cl)CCC1(COCOO1)CO2` (stereo not drawn) returned a melting point of 156 to 157 °C.

`Cc1nn(C)c(NC(=O)Nc2ccccc2)c1C1=CCCC1` gave a melting point of 204 °C.

In turn, `O=c1[nH]c2ccccc2n1CCN1CCNCC1` showed a melting point of 123 °C. Molecule `CCOC(=O)NCCN1c2ccccc2N2CCc3cccc(c32)C1C` (stereo not drawn) showed a melting point of 94 to 96 °C.

As for `COc1ccc(C)cc1NC(=O)Nc1ccc(N2CCN(C(=O)Oc3ccccc3)CC2)cc1`, the melting point was found to be 179 °C. In turn, `O=C(NCCCCCCCCCCCCOC(=O)Oc1ccc([N+](=O)[O-])cc1)OC1CCN(C(=O)Oc2ccc(Oc3ccccc3)cc2)CC1` had a melting point of 96 to 98 °C. `O=C(O)c1cc(NC(=O)C(CS)Cc2ccccc2)ccc1N1CCCC1` (stereo not drawn) showed a melting point of 196 to 198 °C.

`Cc1nccn1-c1nc(-c2ccc(Cl)cc2)c(CCCC2=NCCO2)o1`: the melting point is 88 to 89 °C. `Cc1ccc2c(n1)C(=O)N(c1cccc3ccccc13)C2=O` had a melting point of 200 to 205 °C.

`CC(=NOCCOc1ccc(CC2OC(=O)NC2=O)cc1)c1ccc(-c2ccccc2)cc1` (stereo not drawn) displayed a melting point of 177 to 179 °C. `C[C@H](NC(=O)CCSC(=O)c1ccccc1)C(=O)O` gave a melting point of 99 to 100 °C. The molecule `CCOCc1nc2c(N)nc3cc(Br)ccc3c2s1` displayed a melting point of 201 to 204 °C. In the case of `O=C(NCCCCOc1ccc(-n2ccnc2)cc1)c1ccccc1` it was 117 to 118 °C; in that of `N#Cc1c(O)nc2ccc([N+](=O)[O-])cc2c1O`, 281 to 282 °C. For `COc1cc(OC)nc(Sc2sccc2NC(=O)C(F)(F)F)n1`, the melting point fell in the range of 88 to 90 °C. The molecule `COc1ccc(C(=S)Nc2ccccc2)cc1NS(=O)(=O)c1cc(Cl)cc(Cl)c1` yielded a melting point of 206 to 208 °C. For the molecule `N#Cc1cn(-c2ccc(Cl)c(Cl)c2)c(=O)[nH]c1=O`, the melting point lay within 206 to 208 °C. Take `Oc1ccc(CSSCc2ccc(O)cc2)cc1`: the melting point worked out at 171 °C.

Molecule `CNC(=O)C(NC(=O)C(CC(=O)O)N1C=CN(c2ccc(-c3ccccc3)cc2)C1)C(C)(C)C` (mixture of isomers) yielded a melting point of 187 to 188 °C. `CCCCCCCc1ccc(-c2nc(-c3ccccc3Cl)nn2C)cc1`: the melting point was in the range of 64 to 67 °C. As for `CN1CCN(CCNc2ncnc3c2sc2nc(N4CCCC4)c4c(c23)CC(C)(C)OC4)CC1`, the figure is 97.5 to 98.8 °C. The molecule `CC(C)C(=O)O[C@H]1[C@H](C)OC(=O)[C@@H](NC(=O)OC(C)(C)C)COC(=O)[C@@H]1CC(=O)O` had a melting point of 164 to 167 °C. `Cc1ccc(NC(=O)c2ccccc2)c(C(=O)O)c1` returned a melting point of 205 to 208 °C. As for `CN1C(=O)N(c2cc(Cl)cc(Cl)c2)C(=O)[C@]12CN(Cc1cc(C(=O)O)cs1)C[C@H]2c1ccc(C#N)cc1` (relative stereo), the figure is 188 °C; as for `CC(C)(OC(=O)CCc1nc(-c2ccc(Cl)cc2)co1)c1ccccc1`, 94 to 95 °C.

Usually melting point stands for the temperature of the solid-liquid transition.
